Test results published in PubChem BioAssay (NCI).
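Protocol summary: plate cells (96-well), add compound at 5 concentrations, incubate 48 h, interpolate endpoints linearly. At the TGI there is no net growth.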

Assays:
Test in all cases: NCI anticancer screen, dose series, 48 h
SK-MEL-28 melanoma = system: SK-MEL-28 melanoma
U251 CNS = system: U251 CNS
SK-MEL-2 melanoma = system: SK-MEL-2 melanoma
NCI-H460 lung = system: NCI-H460 lung
MOLT-4 leukemia = system: MOLT-4 leukemia
HOP-92 NSCLC = system: HOP-92 NSCLC
ACHN renal = system: ACHN renal
SN12C renal = system: SN12C renal
SK-MEL-5 melanoma = system: SK-MEL-5 melanoma
SK-OV-3 ovarian = system: SK-OV-3 ovarian
SW-620 colon = system: SW-620 colon
786-0 renal = system: 786-0 renal
SR leukemia = system: SR leukemia

c1ccc2c(c1)OCCOCCOc1ccccc1OCCO2
TGI (SK-MEL-28 melanoma): > 100 µM | TGI (U251 CNS): > 100 µM | TGI (SK-MEL-2 melanoma): > 100 µM | TGI (NCI-H460 lung): > 100 µM | TGI (MOLT-4 leukemia): > 100 µM | TGI (HOP-92 NSCLC): > 100 µM | TGI (ACHN renal): > 100 µM | TGI (SN12C renal): > 100 µM | TGI (SK-MEL-5 melanoma): > 100 µM | TGI (SK-OV-3 ovarian): > 100 µM | TGI (SW-620 colon): 77.1 µM | TGI (786-0 renal): > 100 µM

Cc1n[n+](Cc2ccccc2)c2sc(N)nn12
TGI (SK-MEL-28 melanoma): > 100 µM | TGI (U251 CNS): > 100 µM | TGI (SK-MEL-2 melanoma): > 100 µM | TGI (MOLT-4 leukemia): > 100 µM | TGI (ACHN renal): > 100 µM | TGI (SN12C renal): > 100 µM | TGI (SK-MEL-5 melanoma): > 100 µM | TGI (SK-OV-3 ovarian): > 100 µM | TGI (SW-620 colon): > 100 µM | TGI (786-0 renal): > 100 µM

CCCn1cnc2c(SCc3ccc(Cl)cc3)nc(N)nc21
TGI (SK-MEL-28 melanoma): 83.4 µM | TGI (U251 CNS): 74.5 µM | TGI (SK-MEL-2 melanoma): 41.3 µM | TGI (NCI-H460 lung): 40.6 µM | TGI (SR leukemia): 34.8 µM | TGI (HOP-92 NSCLC): > 100 µM | TGI (ACHN renal): 33.8 µM | TGI (SN12C renal): 83.3 µM | TGI (SK-MEL-5 melanoma): 33.4 µM | TGI (SK-OV-3 ovarian): > 100 µM | TGI (SW-620 colon): > 100 µM | TGI (786-0 renal): > 100 µM

CCOC(=O)CCC1(CCC(=O)OCC)CCCCCCCCC(CCC(=O)OCC)(CCC(=O)OCC)C(=O)C1=O
TGI (SK-MEL-28 melanoma): > 100 µM | TGI (U251 CNS): > 100 µM | TGI (SK-MEL-2 melanoma): > 100 µM | TGI (NCI-H460 lung): > 100 µM | TGI (SR leukemia): > 100 µM | TGI (HOP-92 NSCLC): > 100 µM | TGI (ACHN renal): > 100 µM | TGI (SN12C renal): > 100 µM | TGI (SK-MEL-5 melanoma): > 100 µM | TGI (SK-OV-3 ovarian): > 100 µM | TGI (SW-620 colon): > 100 µM | TGI (786-0 renal): > 100 µM

O=C(NCCN1CCOCC1)c1ccc(I)cc1
TGI (SK-MEL-28 melanoma): > 100 µM | TGI (U251 CNS): > 100 µM | TGI (NCI-H460 lung): > 100 µM | TGI (MOLT-4 leukemia): > 100 µM | TGI (SR leukemia): > 100 µM | TGI (ACHN renal): > 100 µM | TGI (SN12C renal): > 100 µM | TGI (SK-MEL-5 melanoma): > 100 µM | TGI (SK-OV-3 ovarian): > 100 µM | TGI (SW-620 colon): > 100 µM | TGI (786-0 renal): > 100 µM

C=C1CC[C@H]2C(=O)OC(c3ccoc3)C[C@]2(C)C/C=C\C=C/1C(=O)OC (stereo not given in full)
TGI (SK-MEL-28 melanoma): > 25 µM | TGI (U251 CNS): > 25 µM | TGI (SK-MEL-2 melanoma): > 25 µM | TGI (NCI-H460 lung): > 25 µM | TGI (HOP-92 NSCLC): > 25 µM | TGI (ACHN renal): > 25 µM | TGI (SN12C renal): > 25 µM | TGI (SK-MEL-5 melanoma): > 25 µM | TGI (SK-OV-3 ovarian): > 25 µM | TGI (SW-620 colon): > 25 µM | TGI (786-0 renal): > 25 µM

NCCCNCCCCN1CCOC1=O
TGI (SK-MEL-28 melanoma): > 100 µM | TGI (U251 CNS): > 100 µM | TGI (SK-MEL-2 melanoma): > 100 µM | TGI (NCI-H460 lung): > 100 µM | TGI (MOLT-4 leukemia): > 100 µM | TGI (SR leukemia): > 100 µM | TGI (ACHN renal): > 100 µM | TGI (SN12C renal): > 100 µM | TGI (SK-MEL-5 melanoma): > 100 µM | TGI (SK-OV-3 ovarian): > 100 µM | TGI (SW-620 colon): > 100 µM | TGI (786-0 renal): > 100 µM

O=c1cc(CF)[nH]c(=S)[nH]1
TGI (SK-MEL-28 melanoma): > 100 µM | TGI (U251 CNS): > 100 µM | TGI (NCI-H460 lung): > 100 µM | TGI (MOLT-4 leukemia): > 100 µM | TGI (SR leukemia): > 100 µM | TGI (HOP-92 NSCLC): > 100 µM | TGI (ACHN renal): > 100 µM | TGI (SN12C renal): > 100 µM | TGI (SK-MEL-5 melanoma): > 100 µM | TGI (SW-620 colon): > 100 µM | TGI (786-0 renal): > 100 µM

COCn1cnc2c(=O)nc(SC)n(-c3ccccc3)c21
TGI (SK-MEL-2 melanoma): > 100 µM | TGI (MOLT-4 leukemia): > 100 µM | TGI (HOP-92 NSCLC): > 100 µM | TGI (ACHN renal): > 100 µM | TGI (SN12C renal): > 100 µM | TGI (SK-MEL-5 melanoma): > 100 µM | TGI (SK-OV-3 ovarian): > 100 µM | TGI (SW-620 colon): > 100 µM | TGI (786-0 renal): > 100 µM

CC(NC(=O)c1c(O)[nH]c(=S)[nH]c1=O)c1ccc([N+](=O)[O-])cc1 (stereo not given)
TGI (SK-MEL-28 melanoma): > 100 µM | TGI (U251 CNS): > 100 µM | TGI (SK-MEL-2 melanoma): > 100 µM | TGI (NCI-H460 lung): > 100 µM | TGI (MOLT-4 leukemia): 95 µM | TGI (HOP-92 NSCLC): > 100 µM | TGI (ACHN renal): > 100 µM | TGI (SN12C renal): > 100 µM | TGI (SK-MEL-5 melanoma): > 100 µM | TGI (SK-OV-3 ovarian): > 100 µM | TGI (SW-620 colon): > 100 µM | TGI (786-0 renal): > 100 µM

CCCCCCc1cc2cc(C(=O)Nc3ccc(F)cc3)c(=N)oc2cc1O
TGI (SK-MEL-28 melanoma): 43.5 µM | TGI (U251 CNS): 8.64 µM | TGI (SK-MEL-2 melanoma): 9.98 µM | TGI (NCI-H460 lung): > 100 µM | TGI (MOLT-4 leukemia): 5.59 µM | TGI (SR leukemia): 8.23 µM | TGI (ACHN renal): > 100 µM | TGI (SK-MEL-5 melanoma): 3.28 µM | TGI (SK-OV-3 ovarian): 8.09 µM | TGI (SW-620 colon): > 100 µM | TGI (786-0 renal): 77.6 µM

COc1ccc(/C(Cl)=C(\C#N)c2ccc(OC)c(OC)c2)cc1OC
TGI (U251 CNS): > 100 µM | TGI (SK-MEL-2 melanoma): > 100 µM | TGI (NCI-H460 lung): > 100 µM | TGI (MOLT-4 leukemia): > 100 µM | TGI (SR leukemia): > 100 µM | TGI (HOP-92 NSCLC): > 100 µM | TGI (ACHN renal): > 100 µM | TGI (SN12C renal): > 100 µM | TGI (SK-MEL-5 melanoma): > 100 µM | TGI (SW-620 colon): > 100 µM | TGI (786-0 renal): > 100 µM

COC(=O)C1=C(OC)[C@H]2C#C/C=C\C#C[C@@H]3Nc4c(cc(O)c5c4C(=O)c4ccccc4C5=O)[C@]24O[C@@]34[C@H]1C
TGI (U251 CNS): < 0.0133 µM | TGI (SK-MEL-2 melanoma): 0.206 µM | TGI (NCI-H460 lung): > 100 µM | TGI (MOLT-4 leukemia): < 0.01 µM | TGI (SR leukemia): < 0.01 µM | TGI (HOP-92 NSCLC): < 0.01 µM | TGI (ACHN renal): < 0.01 µM | TGI (SN12C renal): < 0.01 µM | TGI (SK-MEL-5 melanoma): < 0.0149 µM | TGI (SW-620 colon): 0.0486 µM | TGI (786-0 renal): < 0.01 µM

NC1(CCNC(=O)c2ccccc2)CCN(C(=O)c2ccccc2)CC1
TGI (U251 CNS): > 100 µM | TGI (SK-MEL-2 melanoma): > 100 µM | TGI (NCI-H460 lung): > 100 µM | TGI (MOLT-4 leukemia): > 100 µM | TGI (SR leukemia): > 100 µM | TGI (HOP-92 NSCLC): > 100 µM | TGI (ACHN renal): > 100 µM | TGI (SN12C renal): > 100 µM | TGI (SK-MEL-5 melanoma): > 100 µM | TGI (SK-OV-3 ovarian): > 100 µM | TGI (SW-620 colon): > 100 µM | TGI (786-0 renal): > 100 µM

COC(=O)N[C@H](C(=O)NC(OCc1ccccc1)C1COC(C)(C)O1)C(C)O[Si](C)(C)C(C)(C)C (stereo not given in full)
TGI (SK-MEL-28 melanoma): > 100 µM | TGI (U251 CNS): > 100 µM | TGI (NCI-H460 lung): > 100 µM | TGI (MOLT-4 leukemia): > 100 µM | TGI (SR leukemia): > 100 µM | TGI (HOP-92 NSCLC): > 100 µM | TGI (ACHN renal): > 100 µM | TGI (SK-MEL-5 melanoma): 65.8 µM | TGI (SK-OV-3 ovarian): > 100 µM | TGI (SW-620 colon): > 100 µM | TGI (786-0 renal): > 100 µM

CCOC(=O)c1ccc(-c2ccc(Cl)cc2)[nH]1
TGI (U251 CNS): > 10 µM | TGI (SK-MEL-2 melanoma): > 10 µM | TGI (NCI-H460 lung): > 10 µM | TGI (MOLT-4 leukemia): > 10 µM | TGI (SR leukemia): > 10 µM | TGI (HOP-92 NSCLC): > 10 µM | TGI (ACHN renal): > 10 µM | TGI (SN12C renal): > 10 µM | TGI (SK-MEL-5 melanoma): > 10 µM | TGI (SK-OV-3 ovarian): > 10 µM | TGI (786-0 renal): > 10 µM

COc1ccc(CNc2nc(NC3CCCCC3)nc(NC3CCCCC3)n2)cc1
TGI (SK-MEL-28 melanoma): > 100 µM | TGI (U251 CNS): 84.7 µM | TGI (SK-MEL-2 melanoma): 80.3 µM | TGI (NCI-H460 lung): 15.6 µM | TGI (MOLT-4 leukemia): > 100 µM | TGI (HOP-92 NSCLC): > 100 µM | TGI (ACHN renal): > 100 µM | TGI (SN12C renal): > 100 µM | TGI (SK-MEL-5 melanoma): 14.4 µM | TGI (SK-OV-3 ovarian): > 100 µM | TGI (SW-620 colon): 50 µM | TGI (786-0 renal): 70.3 µM

CC(=O)c1c(N=[N+]=[N-])c2cccc3c2n(c1=O)CCC3
TGI (U251 CNS): 31.6 µM | TGI (SK-MEL-2 melanoma): 75.2 µM | TGI (NCI-H460 lung): 35.1 µM | TGI (MOLT-4 leukemia): 62.6 µM | TGI (SR leukemia): > 100 µM | TGI (HOP-92 NSCLC): 67.7 µM | TGI (ACHN renal): 54.2 µM | TGI (SN12C renal): 44.5 µM | TGI (SK-MEL-5 melanoma): 28.5 µM | TGI (SK-OV-3 ovarian): > 100 µM | TGI (SW-620 colon): 30.7 µM | TGI (786-0 renal): 33.5 µM

O=C(Cn1c2ccc(Br)cc2c2nc3ccccc3nc21)NNC(=S)NC1CCCCC1
TGI (SK-MEL-28 melanoma): 31.6 µM | TGI (U251 CNS): 28.3 µM | TGI (SK-MEL-2 melanoma): 40.4 µM | TGI (NCI-H460 lung): 24.9 µM | TGI (MOLT-4 leukemia): 22.6 µM | TGI (HOP-92 NSCLC): 27.1 µM | TGI (ACHN renal): 29.6 µM | TGI (SN12C renal): 35.6 µM | TGI (SK-MEL-5 melanoma): 28 µM | TGI (SK-OV-3 ovarian): 70.8 µM | TGI (SW-620 colon): 29.2 µM | TGI (786-0 renal): 28.9 µM
